From patent US20220160716A1 (SORBONNE UNIVERSITE, priority 2019, published 2022)
Entries after “also recorded” stand apart in the source; their conditions may differ.

Assays:
ABCB4-I490T [1] = target: T1, ABCB4-I490T (Homo sapiens, UniProt P21439, I490T); experiment: Canalicular localisation of ABCB4-I490T by indirect immunofluorescence in HepG2 cells; format: cell-based; parameters: The subcloning of wild type (WT) ABCB4, isoform A (NM_000443.3), into pcDNA3 vector has been described; expressed in transfected cells; host or cells: HepG2 (immunofluorescence); conditions: 25 μM
Protocol: For indirect immunofluorescence, HepG2 cells were grown on glass coverslips and after transfection and treatments, they were fixed and permeabilized during 1 min at −20° C. in ice-cold methanol. Then ABCB4 and ABCC2 were immunolabelled using the mouse monoclonal P3II-26 (IgG2b) and M2I-4 (IgG1) antibodies (Enzo Life Sciences), respectively. AlexaFluor® 555 and AlexaFluor® 488 conjugated isotype-specific secondary antibodies (Thermo Fisher Scientific) and Hoechst 33342 (Thermo Fisher Scientific) were used to label ABCB4, ABCC2 and nuclei, respectively. Images were acquired using an IX83 inverted fluorescence microscope from Olympus (Rungis, France), equipped with a UPLSAPO 60XS2 silicone immersion objective and a Hamamatsu ORCA Flash4.0 digital CMOS camera, and analysed using Olympus CellSens Dimension Desktop version 1.16 and Adobe Photoshop version 8.0.1. For each experiment, all images were acquired with constant settings (acquisition time and correction of signal intensities).

ABCB4-I541F = ABCB4-I541F (Homo sapiens, UniProt P21439, I541F); experiment: Maturation of ABCB4-I541F by immunoblot in HEK cells; format: cell-based; parameters: The subcloning of wild type (WT) ABCB4, isoform A (NM_000443.3), into pcDNA3 vector has been described; expressed in transfected cells; host or cells: HEK-293 (immunoblot, PC secretion); conditions: for maturation (mature form) of ABCB4-I541F: HEK cells, 100 μM, 16 hours, immunoblot; for correction of ABCB4-I541F maturation: HEK cells, 5, 10 and 25 μM
Protocol: (§1) Cyclosporin A (CsA) was from Santa Cruz Biotechnologies (Dallas, Tex.). […] Each compound was solubilized in dimethylsulfoxide (DMSO) as 1000× concentrated stock solutions in order to treat cells with 5 μM to 100 μM final concentrations, using DMSO as control vehicle at the same dilution (0.1% DMSO for all conditions). The cells were treated 24 hours post-transfection with these drugs during 16 hours, except for the viability assays for which cells were treated during three days. After drug treatment, cells were used for immunoanalyses, cell viability assays or PC secretion assays.
Western blots and indirect immunofluorescence were performed as previously described (2, 12). […] Signals were detected with ECL prime western blotting detection reagent (GE Healthcare, Velizy-Villacoublay, France) and quantified in the linear range of detection using ImageJ 1.50i software (U.S. National Institutes of Health, Bethesda, Md.).

ABCB4-L556R = ABCB4-L556R (Homo sapiens, UniProt P21439, L556R); experiment: Maturation of ABCB4-L556R by immunoblot in HEK cells; format: cell-based; parameters: The subcloning of wild type (WT) ABCB4, isoform A (NM_000443.3), into pcDNA3 vector has been described; expressed in transfected cells; host or cells: HEK-293 (immunoblot, PC secretion); conditions: 5 to 25 μM
Protocol: Western blots and indirect immunofluorescence were performed as previously described (2, 12). […] Saturated membranes were incubated with mouse monoclonal anti-ABCB4 (clone P3II-26; Enzo Life Sciences, Villeurbanne, France) or anti-α-tubulin (clone 1E4C11; ProteinTech, Manchester, United Kingdom) antibodies and then with peroxidase conjugated anti-mouse secondary antibodies (Sigma). Signals were detected with ECL prime western blotting detection reagent (GE Healthcare, Velizy-Villacoublay, France) and quantified in the linear range of detection using ImageJ 1.50i software (U.S. National Institutes of Health, Bethesda, Md.).

DYRK1A = target: T2, DYRK1A (Homo sapiens, UniProt Q13627); experiment: Protein kinase catalytic activity assay, DYRK1A; format: biochemical; conditions: read-out: IC50 of protein kinases, DYRK1A
T2 construct: made in house

GSK3 = GSK3 (Homo sapiens, UniProt P49841); experiment: Protein kinase catalytic activity assay, GSK3; format: biochemical; conditions: read-out: IC50 of protein kinases, GSK3
ABCB4-I490T [2] = target: T1, ABCB4-I490T; experiment: ABCB4-mediated phosphatidylcholine secretion, HEK cells expressing ABCB4-I490T; format: cell-based; parameters: The subcloning of wild type (WT) ABCB4, isoform A (NM_000443.3), into pcDNA3 vector has been described; expressed in transfected cells; host or cells: HEK-293 (immunoblot, PC secretion); conditions: 25 μM
Protocol: as §1
HEK cells were seeded in 0.01% poly-L-lysine (Sigma) pre-coated 6-well plates of 10 cm^2 area per well (1.3×10^6 cells per well). After transient transfection of the empty vector (control), plasmids encoding ABCB4-WT or its variants, cells were incubated during 24 hours at 37° C. in serum-free medium supplemented with 0.5 mM sodium taurocholate (Sigma) and 0.02% fatty acid-free bovine serum albumin (Sigma). Then, the secreted PC was quantified from the collected media using a fluoro-enzymatic assay previously described (12). Each condition was analysed in triplicate, after background subtraction, and results were normalized to the expression levels of ABCB4 determined by immunoblots of the corresponding cell lysates.

CDK9/T = target: T3, CDK9/T (Homo sapiens, UniProt P50750); experiment: Protein kinase catalytic activity assay, CDK9/cyclin T; format: biochemical; conditions: activator cyclin T; read-out: IC50 of protein kinases, CDK9/T
T3 construct: made in house

CDK5/p25 = target: T4, CDK5/p25 (Homo sapiens, UniProt Q00535); format: biochemical; conditions: activator p25; read-out: IC50 of protein kinases, CDK5/p25
T4 construct: made in house
T4 sequence (Q00535 whole entry, species assumed): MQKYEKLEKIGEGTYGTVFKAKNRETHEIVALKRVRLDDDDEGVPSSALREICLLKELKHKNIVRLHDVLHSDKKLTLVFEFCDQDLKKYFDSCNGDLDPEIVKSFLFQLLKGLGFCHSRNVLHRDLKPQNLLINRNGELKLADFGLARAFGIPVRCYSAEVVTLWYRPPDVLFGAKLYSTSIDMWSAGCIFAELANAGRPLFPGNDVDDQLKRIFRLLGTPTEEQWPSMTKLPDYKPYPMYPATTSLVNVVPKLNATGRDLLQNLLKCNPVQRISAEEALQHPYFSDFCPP
T4 sequence (Q15078 99-307 partner limits assumed, species assumed): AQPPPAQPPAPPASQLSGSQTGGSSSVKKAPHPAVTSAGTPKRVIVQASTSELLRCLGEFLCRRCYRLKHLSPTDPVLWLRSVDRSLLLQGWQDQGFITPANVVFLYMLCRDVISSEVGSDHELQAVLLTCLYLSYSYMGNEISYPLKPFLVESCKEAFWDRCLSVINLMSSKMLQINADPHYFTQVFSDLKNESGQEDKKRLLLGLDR

ABCB4-L556R, sequence (P21439 1-1279 isoform P21439-2 L556R): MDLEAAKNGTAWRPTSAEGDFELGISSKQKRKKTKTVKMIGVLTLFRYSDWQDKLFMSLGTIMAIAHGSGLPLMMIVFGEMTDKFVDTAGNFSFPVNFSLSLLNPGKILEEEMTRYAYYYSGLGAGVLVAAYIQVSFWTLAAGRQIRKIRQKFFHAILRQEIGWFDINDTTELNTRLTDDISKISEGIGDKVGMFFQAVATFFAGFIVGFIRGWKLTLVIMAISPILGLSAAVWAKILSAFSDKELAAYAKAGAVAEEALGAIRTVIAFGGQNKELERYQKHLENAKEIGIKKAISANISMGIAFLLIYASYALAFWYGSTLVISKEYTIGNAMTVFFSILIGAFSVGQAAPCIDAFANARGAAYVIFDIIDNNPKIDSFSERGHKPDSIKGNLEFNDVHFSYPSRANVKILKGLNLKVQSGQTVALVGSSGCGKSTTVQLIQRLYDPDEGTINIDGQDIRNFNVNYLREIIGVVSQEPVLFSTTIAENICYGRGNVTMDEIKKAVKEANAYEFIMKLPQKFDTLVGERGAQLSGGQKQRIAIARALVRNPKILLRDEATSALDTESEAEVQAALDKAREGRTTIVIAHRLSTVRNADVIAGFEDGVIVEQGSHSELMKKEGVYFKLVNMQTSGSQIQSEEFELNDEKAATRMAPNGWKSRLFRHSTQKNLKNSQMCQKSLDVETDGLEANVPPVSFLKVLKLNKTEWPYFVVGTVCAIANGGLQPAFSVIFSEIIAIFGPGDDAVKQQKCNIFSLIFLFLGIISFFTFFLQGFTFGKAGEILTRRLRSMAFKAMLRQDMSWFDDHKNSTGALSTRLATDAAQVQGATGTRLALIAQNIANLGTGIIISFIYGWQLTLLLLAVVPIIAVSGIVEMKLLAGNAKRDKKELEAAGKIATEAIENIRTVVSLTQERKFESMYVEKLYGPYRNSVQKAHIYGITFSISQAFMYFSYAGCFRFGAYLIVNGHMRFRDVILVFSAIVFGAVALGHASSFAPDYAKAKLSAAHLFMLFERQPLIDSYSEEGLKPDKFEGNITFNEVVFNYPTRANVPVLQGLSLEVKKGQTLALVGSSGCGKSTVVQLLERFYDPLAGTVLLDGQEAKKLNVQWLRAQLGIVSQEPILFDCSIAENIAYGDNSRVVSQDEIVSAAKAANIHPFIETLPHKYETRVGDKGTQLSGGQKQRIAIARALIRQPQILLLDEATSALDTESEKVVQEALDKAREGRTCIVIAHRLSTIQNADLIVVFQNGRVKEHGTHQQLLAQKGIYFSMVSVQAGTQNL
ABCB4-I541F, sequence (P21439 1-1279 isoform P21439-2 I541F): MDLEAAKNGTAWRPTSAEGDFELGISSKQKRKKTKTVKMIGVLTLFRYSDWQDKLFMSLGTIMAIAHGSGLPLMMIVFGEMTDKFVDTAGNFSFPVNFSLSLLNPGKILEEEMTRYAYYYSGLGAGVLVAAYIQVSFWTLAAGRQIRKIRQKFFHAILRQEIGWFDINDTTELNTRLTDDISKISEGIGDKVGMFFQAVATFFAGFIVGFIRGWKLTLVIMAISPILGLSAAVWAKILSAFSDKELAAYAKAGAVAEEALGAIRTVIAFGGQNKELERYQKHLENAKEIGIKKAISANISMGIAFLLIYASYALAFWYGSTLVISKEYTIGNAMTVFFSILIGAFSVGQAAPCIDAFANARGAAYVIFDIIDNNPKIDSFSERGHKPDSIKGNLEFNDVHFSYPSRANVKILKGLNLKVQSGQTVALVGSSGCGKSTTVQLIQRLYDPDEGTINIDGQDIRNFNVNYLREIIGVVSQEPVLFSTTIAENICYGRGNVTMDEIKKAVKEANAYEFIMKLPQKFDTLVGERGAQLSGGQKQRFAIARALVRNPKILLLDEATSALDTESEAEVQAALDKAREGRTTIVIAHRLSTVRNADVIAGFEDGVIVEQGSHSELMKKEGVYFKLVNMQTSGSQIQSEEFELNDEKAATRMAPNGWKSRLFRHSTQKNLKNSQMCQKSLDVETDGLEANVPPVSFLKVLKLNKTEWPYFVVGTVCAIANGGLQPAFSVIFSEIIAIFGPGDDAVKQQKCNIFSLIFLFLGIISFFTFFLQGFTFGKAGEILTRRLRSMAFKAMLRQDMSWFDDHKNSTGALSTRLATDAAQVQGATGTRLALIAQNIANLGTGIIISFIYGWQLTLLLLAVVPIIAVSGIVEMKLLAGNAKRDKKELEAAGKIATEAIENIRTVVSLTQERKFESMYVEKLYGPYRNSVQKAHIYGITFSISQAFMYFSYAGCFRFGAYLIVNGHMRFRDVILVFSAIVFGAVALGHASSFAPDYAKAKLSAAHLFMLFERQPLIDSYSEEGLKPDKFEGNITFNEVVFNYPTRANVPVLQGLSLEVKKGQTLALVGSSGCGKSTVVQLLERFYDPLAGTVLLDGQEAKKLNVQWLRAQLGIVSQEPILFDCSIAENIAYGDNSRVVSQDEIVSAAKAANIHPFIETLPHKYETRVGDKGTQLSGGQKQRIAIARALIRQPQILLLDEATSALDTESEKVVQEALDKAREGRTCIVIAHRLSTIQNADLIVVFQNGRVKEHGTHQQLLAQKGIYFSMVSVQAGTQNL
GSK3, sequence (P49841 whole entry, canonical isoform): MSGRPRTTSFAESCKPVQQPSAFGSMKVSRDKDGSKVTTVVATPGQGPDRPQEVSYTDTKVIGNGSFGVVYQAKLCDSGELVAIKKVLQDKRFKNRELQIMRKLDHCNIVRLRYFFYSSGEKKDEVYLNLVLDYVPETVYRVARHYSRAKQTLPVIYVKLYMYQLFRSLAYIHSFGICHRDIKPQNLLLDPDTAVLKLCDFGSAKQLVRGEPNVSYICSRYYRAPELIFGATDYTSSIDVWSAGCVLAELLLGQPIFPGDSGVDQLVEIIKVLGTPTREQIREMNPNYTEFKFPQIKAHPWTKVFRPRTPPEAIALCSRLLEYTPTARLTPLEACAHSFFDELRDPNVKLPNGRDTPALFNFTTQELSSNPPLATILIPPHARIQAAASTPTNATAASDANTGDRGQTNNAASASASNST
T1 sequence (P21439 1-1279 isoform P21439-2 I490T): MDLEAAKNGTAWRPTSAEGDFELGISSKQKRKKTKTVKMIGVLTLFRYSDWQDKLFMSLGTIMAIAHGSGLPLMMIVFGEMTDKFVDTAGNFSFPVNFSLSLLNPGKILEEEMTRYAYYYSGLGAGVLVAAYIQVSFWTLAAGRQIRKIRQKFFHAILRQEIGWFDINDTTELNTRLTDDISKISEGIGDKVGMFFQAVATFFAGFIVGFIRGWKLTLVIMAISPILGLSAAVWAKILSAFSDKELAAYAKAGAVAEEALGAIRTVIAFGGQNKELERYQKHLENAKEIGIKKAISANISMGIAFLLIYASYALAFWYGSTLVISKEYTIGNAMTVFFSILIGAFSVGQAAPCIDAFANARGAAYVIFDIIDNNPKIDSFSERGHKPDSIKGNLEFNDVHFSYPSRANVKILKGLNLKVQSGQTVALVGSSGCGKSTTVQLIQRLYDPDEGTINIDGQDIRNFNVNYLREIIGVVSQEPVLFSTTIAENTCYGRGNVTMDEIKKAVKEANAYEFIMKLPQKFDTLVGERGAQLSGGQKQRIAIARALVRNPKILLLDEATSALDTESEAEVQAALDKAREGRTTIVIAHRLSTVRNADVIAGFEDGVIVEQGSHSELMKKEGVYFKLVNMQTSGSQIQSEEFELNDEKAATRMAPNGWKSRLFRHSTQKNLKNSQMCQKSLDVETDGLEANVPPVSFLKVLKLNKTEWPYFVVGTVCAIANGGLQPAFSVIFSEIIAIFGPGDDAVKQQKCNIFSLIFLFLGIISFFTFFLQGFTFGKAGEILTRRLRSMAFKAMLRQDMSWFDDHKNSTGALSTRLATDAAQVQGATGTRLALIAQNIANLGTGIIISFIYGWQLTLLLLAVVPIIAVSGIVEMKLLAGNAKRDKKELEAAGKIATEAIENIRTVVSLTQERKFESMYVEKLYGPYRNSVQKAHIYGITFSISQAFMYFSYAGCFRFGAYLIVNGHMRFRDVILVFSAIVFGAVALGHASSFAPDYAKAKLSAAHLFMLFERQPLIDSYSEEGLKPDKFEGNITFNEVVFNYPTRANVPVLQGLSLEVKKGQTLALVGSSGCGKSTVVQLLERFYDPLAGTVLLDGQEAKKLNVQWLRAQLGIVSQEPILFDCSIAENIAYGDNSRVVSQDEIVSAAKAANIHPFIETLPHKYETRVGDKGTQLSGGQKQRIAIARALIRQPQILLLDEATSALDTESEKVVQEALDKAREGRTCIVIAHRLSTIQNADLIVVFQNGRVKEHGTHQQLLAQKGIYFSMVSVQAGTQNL

Compound	relocalisation of ABCB4-I490T at bile canaliculi (ABCB4-I490T [1])	maturation (mature form) of ABCB4-I541F (ABCB4-I541F)	correction of ABCB4-I541F maturation (ABCB4-I541F)	rescue of the maturation of ABCB4-L556R (ABCB4-L556R)	IC50 (DYRK1A) [µM]	IC50 (GSK3) [µM]	PC secretion residual activity of ABCB4-I490T (ABCB4-I490T [2])	IC50 (CDK9/T) [µM]	IC50 (CDK5/p25) [µM]
CC[C@@H](Nc1nc(NCc2cccc(F)c2)c2ncn(C3CCCC3)c2n1)C(=O)O [MRT2-235]	partially relocalised at bile canaliculi	significantly increase the expression of a mature form of ABCB4-I541F; also recorded: significant rescue of the maturation	dose-dependent correction of ABCB4-I541F maturation	dose-dependent rescue of the maturation	21	> 10	significant increase of the residual activity	7	8.3
CC[C@@H](Nc1nc(NCc2cccc(Cl)c2)c2ncn(C3CCCC3)c2n1)C(=O)O [MRT2-237]	partially relocalised at bile canaliculi	significantly increase the expression of a mature form of ABCB4-I541F; also recorded: significant rescue of the maturation	dose-dependent correction of ABCB4-I541F maturation	dose-dependent rescue of the maturation	13	> 10	significant increase of the residual activity	9	7.7
CC[C@@H](Nc1nc(NCc2ccc(Cl)c(F)c2)c2ncn(C3CCCC3)c2n1)C(=O)O [MRT2-243]	partially relocalised at bile canaliculi	significantly increase the expression of a mature form of ABCB4-I541F; also recorded: significant rescue of the maturation	dose-dependent correction of ABCB4-I541F maturation	dose-dependent rescue of the maturation	12	> 10	significant increase of the residual activity	5	6.3
